Drawing on patent publication US8575158B2, “1-phenyl-substituted heterocyclyl derivatives and their use as prostaglandin D2 receptor modulators” (Actelion Pharmaceuticals Ltd., priority 2010, dated 2013), this text covers IC50 for 21 compounds.

This assay concerns the target T1, hCRTH2 receptor (Homo sapiens, UniProt Q9Y5Y4).
T1 construct: expressed in transfected cells; host or cells: HEK293
T1 sequence (Q9Y5Y4 1-395): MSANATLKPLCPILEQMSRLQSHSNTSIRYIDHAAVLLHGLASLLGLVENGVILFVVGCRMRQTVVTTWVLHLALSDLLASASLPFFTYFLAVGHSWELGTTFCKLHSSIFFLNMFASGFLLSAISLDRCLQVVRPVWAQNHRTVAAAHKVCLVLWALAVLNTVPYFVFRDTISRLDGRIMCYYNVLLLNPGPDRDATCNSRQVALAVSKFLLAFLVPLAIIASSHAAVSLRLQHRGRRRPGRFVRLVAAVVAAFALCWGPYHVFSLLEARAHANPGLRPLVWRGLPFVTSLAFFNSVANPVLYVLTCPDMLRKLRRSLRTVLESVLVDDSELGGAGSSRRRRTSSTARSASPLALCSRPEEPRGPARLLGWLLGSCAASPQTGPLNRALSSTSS
Nature of the assay: Radioligand displacement assay (3H-PGD2) on hCRTH2 receptor membranes. The class given is binding. Conditions: antagonistic activity, 3H-PGD2 radioligand displacement, HEK293-hCRTH2 membranes.
The compound `O=C(O)COc1ccc(Cl)cc1[C@@H]1c2ccccc2CCN1C(=O)OCc1noc2ccccc12` [Example 298, (S)-1-(2-Carboxymethoxy-5-chloro-phenyl)-3,4-dihydro-1H-isoquinoline-2-carboxylic acid benzo[d]isoxazol-3-ylmethyl ester] gave an IC50 of 2.49 nM.
The same measure for `O=C(O)COc1ccc(Cl)cc1[C@@H]1c2ccc(F)c(F)c2CCN1C(=O)OCc1nccs1` [Example 299, (S)-1-(2-Carboxymethoxy-5-chloro-phenyl)-5,6-difluoro-3,4-dihydro-1H-isoquinoline-2-carboxylic acid thiazol-2-ylmethyl ester]: 6.83 nM.
Next, `Cc1ncsc1CCOC(=O)N1CCc2c(ccc(F)c2F)[C@H]1c1cc(Cl)ccc1OCC(=O)O` [Example 300, (S)-1-(2-Carboxymethoxy-5-chloro-phenyl)-5,6-difluoro-3,4-dihydro-1H-isoquinoline-2-carboxylic acid 2-(4-methyl-thiazol-5-yl)-ethyl ester]: 6.39 nM; `Cc1cnc(COC(=O)N2CCc3c(ccc(F)c3F)[C@H]2c2cc(Cl)ccc2OCC(=O)O)s1` [Example 301, (S)-1-(2-Carboxymethoxy-5-chloro-phenyl)-5,6-difluoro-3,4-dihydro-1H-isoquinoline-2-carboxylic acid 5-methyl-thiazol-2-ylmethyl ester]: 4.55 nM.
For the compound `Cc1csc(COC(=O)N2CCc3c(ccc(F)c3F)[C@H]2c2cc(Cl)ccc2OCC(=O)O)n1` [Example 302, (S)-1-(2-Carboxymethoxy-5-chloro-phenyl)-5,6-difluoro-3,4-dihydro-1H-isoquinoline-2-carboxylic acid 4-methyl-thiazol-2-ylmethyl ester], the IC50 was 5.7 nM.
Turning to `Cc1ncc(COC(=O)N2CCc3c(ccc(F)c3F)[C@H]2c2cc(Cl)ccc2OCC(=O)O)s1` [Example 303, (S)-1-(2-Carboxymethoxy-5-chloro-phenyl)-5,6-difluoro-3,4-dihydro-1H-isoquinoline-2-carboxylic acid 2-methyl-thiazol-5-ylmethyl ester], the half-maximal inhibitory concentration (IC50) is 5.05 nM.
The same measure for `Cc1nc(COC(=O)N2CCc3c(ccc(F)c3F)[C@H]2c2cc(Cl)ccc2OCC(=O)O)cs1` [Example 304, (S)-1-(2-Carboxymethoxy-5-chloro-phenyl)-5,6-difluoro-3,4-dihydro-1H-isoquinoline-2-carboxylic acid 2-methyl-thiazol-4-ylmethyl ester]: 5.39 nM.
Next, `Cc1cc(COC(=O)N2CCc3c(ccc(F)c3F)[C@H]2c2cc(Cl)ccc2OCC(=O)O)on1` [Example 305, (S)-1-(2-Carboxymethoxy-5-chloro-phenyl)-5,6-difluoro-3,4-dihydro-1H-isoquinoline-2-carboxylic acid 3-methyl-isoxazol-5-ylmethyl ester]: 2.13 nM; `Cc1conc1COC(=O)N1CCc2c(ccc(F)c2F)[C@H]1c1cc(Cl)ccc1OCC(=O)O` [Example 306, (S)-1-(2-Carboxymethoxy-5-chloro-phenyl)-5,6-difluoro-3,4-dihydro-1H-isoquinoline-2-carboxylic acid 4-methyl-isoxazol-3-ylmethyl ester]: 3.12 nM; `Cc1noc(C)c1COC(=O)N1CCc2c(ccc(F)c2F)[C@H]1c1cc(Cl)ccc1OCC(=O)O` [Example 307, (S)-1-(2-Carboxymethoxy-5-chloro-phenyl)-5,6-difluoro-3,4-dihydro-1H-isoquinoline-2-carboxylic acid 3,5-dimethyl-isoxazol-4-ylmethyl ester]: 3.34 nM.
The same measure for `O=C(O)COc1ccc(Cl)cc1[C@@H]1c2ccc(F)c(F)c2CCN1C(=O)OCc1cnccn1` [Example 308, (S)-1-(2-Carboxymethoxy-5-chloro-phenyl)-5,6-difluoro-3,4-dihydro-1H-isoquinoline-2-carboxylic acid pyrazin-2-ylmethyl ester]: 1.69 nM; for `O=C(O)COc1ccc(Cl)cc1[C@@H]1c2ccc(F)c(F)c2CCN1C(=O)OCc1ccncn1` [Example 309, (S)-1-(2-Carboxymethoxy-5-chloro-phenyl)-5,6-difluoro-3,4-dihydro-1H-isoquinoline-2-carboxylic acid pyrimidin-4-ylmethyl ester]: 4.77 nM.
`O=C(O)COc1ccc(Cl)cc1[C@@H]1c2ccc(F)c(F)c2CCN1C(=O)OCCc1ccccc1` [Example 310, (S)-1-(2-Carboxymethoxy-5-chloro-phenyl)-5,6-difluoro-3,4-dihydro-1H-isoquinoline-2-carboxylic acid phenethyl ester] showed an IC50 of 5.14 nM.
The same measure for `O=C(O)COc1ccc(Cl)cc1[C@@H]1c2ccc(F)c(F)c2CCN1C(=O)OCCc1cccc(F)c1` [Example 311, (S)-1-(2-Carboxymethoxy-5-chloro-phenyl)-5,6-difluoro-3,4-dihydro-1H-isoquinoline-2-carboxylic acid 2-(3-fluoro-phenyl)-ethyl ester]: 11 nM; for `Cn1nccc1COC(=O)N1CCc2c(ccc(F)c2F)[C@H]1c1cc(Cl)ccc1OCC(=O)O` [Example 312, (S)-1-(2-Carboxymethoxy-5-chloro-phenyl)-5,6-difluoro-3,4-dihydro-1H-isoquinoline-2-carboxylic acid 2-methyl-2H-pyrazol-3-ylmethyl ester]: 4.65 nM; for `Cc1cc(COC(=O)N2CCc3c(ccc(F)c3F)[C@H]2c2cc(Cl)ccc2OCC(=O)O)n(C)n1` [Example 313, (S)-1-(2-Carboxymethoxy-5-chloro-phenyl)-5,6-difluoro-3,4-dihydro-1H-isoquinoline-2-carboxylic acid 2,5-dimethyl-2H-pyrazol-3-ylmethyl ester]: 2.37 nM.
Next, `CCn1nc(C)cc1CCOC(=O)N1CCc2c(ccc(F)c2F)[C@H]1c1cc(Cl)ccc1OCC(=O)O` [Example 314, (S)-1-(2-Carboxymethoxy-5-chloro-phenyl)-5,6-difluoro-3,4-dihydro-1H-isoquinoline-2-carboxylic acid 2-(2-ethyl-5-methyl-2H-pyrazol-3-yl)-ethyl ester]: 9.8 nM; `Cn1cncc1COC(=O)N1CCc2c(ccc(F)c2F)[C@H]1c1cc(Cl)ccc1OCC(=O)O` [Example 315, (S)-1-(2-Carboxymethoxy-5-chloro-phenyl)-5,6-difluoro-3,4-dihydro-1H-isoquinoline-2-carboxylic acid 3-methyl-3H-imidazol-4-ylmethyl ester]: 2.82 nM; `Cc1cc(C)n(CCOC(=O)N2CCc3c(ccc(F)c3F)[C@H]2c2cc(Cl)ccc2OCC(=O)O)n1` [Example 316, (S)-1-(2-Carboxymethoxy-5-chloro-phenyl)-5,6-difluoro-3,4-dihydro-1H-isoquinoline-2-carboxylic acid 2-(3,5-dimethyl-pyrazol-1-yl)-ethyl ester]: 5.07 nM.
The same measure for `Cc1cnn(COC(=O)N2CCc3c(ccc(F)c3F)[C@H]2c2cc(Cl)ccc2OCC(=O)O)c1` [Example 317, (S)-1-(2-Carboxymethoxy-5-chloro-phenyl)-5,6-difluoro-3,4-dihydro-1H-isoquinoline-2-carboxylic acid 4-methyl-pyrazol-1-ylmethyl ester]: 14.7 nM.
`Cc1nc2ccccc2n1CCOC(=O)N1CCc2c(ccc(F)c2F)[C@H]1c1cc(Cl)ccc1OCC(=O)O` [Example 318] registered an IC50 of 138 nM.
